The target of this test is Cdc7/ASK (Homo sapiens, UniProt O00311). Put plainly: Cdc7 biochemical assay Method 1: 384 well ELISA, MCM2 whole protein substrate, Phospho MCM2 (S53) antibody. The note with it: ATP 2 μM, 90 minutes, read-out: Biochemical method 1 (pIC50) (converted). The arrangement: purchased. The method, then:
This protocol describes a method for assaying Cdc7/ASK for activity. The assay is a 384 well ELISA assay, utilising a whole protein substrate (MCM2) and an antibody against Phospho MCM2 (S53). This site is thought to be specific to Cdc7/ASK phosphorylation and the assay has been validated using knockout mutants.
• TBS: 25 mM Tris pH 7.2, 150 mM NaCl. (Dilute 10× stock by 1:10). • Wash Buffer: TBS+0.05% Tween 20. (Add 100 mL 1 M Tris pH 7.2, 120 mL 5 M NaCl and 2 mL 100% Tween 20 per 4 L). • Kinase Reaction Buffer: 50 mM Tris-HCl pH 8.5, 10 mM MgCl2, 1 mM DTT. (Dilute 10× stock by 1:10 and add 100 μL 1M DTT per 100 mL prior to assay). • Diethanolamine Buffer: 1 M diethanolamine pH 9.8, 0.5 mM MgCl2. • Stop Solution: 1 M NaOH. • MCM2 was expressed and purified in-house and used in the assay at a final assay concentration of 436 ng/well. • Cdc7/ASK is purchased from commercial suppliers and used in the assay at a final assay concentration of 37.97 ng/well or 20.63 nM. • ATP used as a final assay concentration of 2 μM. • Primary Antibody: Rabbit anti-Phospho MCM2 (S53 Antibody (BL3353)), is purchased from commercial suppliers at 0.2 mg/mL and used at a final assay concentration by diluting 1:800 in TBS. • Secondary Antibody: Anti-Rabbit/AP Antibody is supplied is purchased from commercial suppliers at 1 mg/mL and used at a final assay concentration by diluting 1:2000 in TBS. • Development Reagent: Dissolve one 20 mg PNPP tablet (Sigma, product N2765, 20 mg per tablet) per 20 mL diethanolamine Buffer (or one 5 mg PNPP tablet per 5 mL diethanolamine buffer). Cover in foil and leave shaking on a roller shaker at room temperature for up to an hour to dissolve. Methods • 1. Add 20 μL 1× working stock of Substrate (MCM2) in TBS to all wells of a clear, 384 well, Nickel-chelate microplate to give a final concentration of 250 ng/well. Incubate at room temperature for at least 1 hour. Plates can be pre-coated for 1 hour and stored at 4° C. for up to 8 days. • 2. Wash with TBS+0.05% Tween 20 (80 μL x 3). • 3. Add 2 μL 10× test compounds, including the positive control, in 40% DMSO/water to ‘test’ wells. Add 2 μL 40% DMSO/water to ‘control’ and ‘blank’ wells. The final DMSO concentration will be 4%. • 4. Add 13 μL CDCl7/ASK Kinase (1.5× stock) in Kinase Reaction Buffer to ‘test’ and ‘control’ wells to give a final concentration of […]. Add 13 μL Kinase Reaction Buffer to ‘blank’ wells. • 5. Add 5 μL ATP (4× stock) in Kinase Reaction Buffer to all wells to give a final concentration of 2 μM. • 6. Incubate at room temperature for 90 minutes. • 7. Wash with TBS+0.05% Tween 20 (80 μL x 3). • 8. Add 20 μL 1× working solution of Primary Antibody in TBS to all wells. Incubate at room temperature for 30 minutes. • 9. Wash with TBS+0.05% Tween 20 (80 μL x 3). • 10. Add 20 μL 1× working solution of Secondary Antibody in TBS to all wells. Incubate at room temperature for 30 minutes. • 11. Wash with TBS+0.05% Tween 20 (80 μL x 3). • 12. Add 20 μL 1× Development Reagent to all wells. • 13. Incubate at room temperature for 2 hours. Stop the reaction by adding 20 μL Stop Solution to all wells and record Absorbance on a Pherastar plate reader.
Percentage inhibition values were calculated from absorbance values, using the no compound (DMSO) and no enzyme control values as 0% and 100% inhibition, respectively. IC50 determination was performed with ExcelFit software (IDBS) using curve fit 205. Z′ factors were determined for each plate tested and were all above 0.5.
Cdc7/ASK, sequence (O00311 whole entry): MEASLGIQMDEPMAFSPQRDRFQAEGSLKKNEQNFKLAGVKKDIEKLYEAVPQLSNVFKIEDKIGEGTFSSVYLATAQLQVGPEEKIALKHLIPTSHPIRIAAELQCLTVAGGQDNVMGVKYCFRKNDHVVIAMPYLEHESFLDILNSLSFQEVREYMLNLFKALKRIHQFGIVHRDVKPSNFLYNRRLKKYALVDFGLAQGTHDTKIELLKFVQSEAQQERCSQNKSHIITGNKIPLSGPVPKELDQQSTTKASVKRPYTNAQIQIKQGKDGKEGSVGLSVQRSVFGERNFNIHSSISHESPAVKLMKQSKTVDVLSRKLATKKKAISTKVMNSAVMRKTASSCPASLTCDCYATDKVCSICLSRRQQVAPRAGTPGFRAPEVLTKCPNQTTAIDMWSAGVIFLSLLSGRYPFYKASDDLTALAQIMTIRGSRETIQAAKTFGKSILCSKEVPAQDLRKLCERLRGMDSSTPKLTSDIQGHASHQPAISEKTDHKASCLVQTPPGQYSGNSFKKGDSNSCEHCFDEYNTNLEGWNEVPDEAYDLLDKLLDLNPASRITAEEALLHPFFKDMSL
Cdc7/ASK, sequence (Q9UBU7 whole entry partner): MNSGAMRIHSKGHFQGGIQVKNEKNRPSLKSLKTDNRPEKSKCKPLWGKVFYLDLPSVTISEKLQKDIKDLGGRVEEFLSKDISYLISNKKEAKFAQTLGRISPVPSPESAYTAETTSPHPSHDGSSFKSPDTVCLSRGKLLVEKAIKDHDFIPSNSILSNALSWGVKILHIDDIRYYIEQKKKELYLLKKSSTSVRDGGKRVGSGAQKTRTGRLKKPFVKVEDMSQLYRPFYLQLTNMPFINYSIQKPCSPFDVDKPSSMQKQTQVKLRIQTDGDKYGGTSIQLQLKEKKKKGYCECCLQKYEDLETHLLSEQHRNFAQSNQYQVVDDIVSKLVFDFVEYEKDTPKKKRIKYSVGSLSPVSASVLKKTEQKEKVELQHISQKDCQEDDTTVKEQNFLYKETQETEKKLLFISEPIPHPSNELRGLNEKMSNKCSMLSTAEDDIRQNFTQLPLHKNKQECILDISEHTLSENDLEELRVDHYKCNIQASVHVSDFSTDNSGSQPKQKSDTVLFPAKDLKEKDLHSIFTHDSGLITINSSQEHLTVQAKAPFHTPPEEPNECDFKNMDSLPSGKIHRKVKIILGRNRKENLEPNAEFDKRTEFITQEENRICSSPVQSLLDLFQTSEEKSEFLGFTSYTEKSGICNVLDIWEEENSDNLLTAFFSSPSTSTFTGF
For `Cc1ncsc1-c1nc(C2CCN(C(=O)c3ccnnc3)CC2)c(Cl)c(=O)[nH]1` [Compound 26, 5-chloro-2-(4-methylthiazol-5-yl)-4-[1-(pyridazine-4-carbonyl)-4-piperidyl]-1H-pyrimidin-6-one], the IC50 is 1.66 nM. As for `Cc1nc(O)sc1-c1nc(C2CCOCC2)c(Cl)c(=O)[nH]1` [Compound 5, 5-chloro-2-(2-hydroxy-4-methyl-thiazol-5-yl)-4-tetrahydropyran-4-yl-1H-pyrimidin-6-one], the IC50 was 126 nM. For `Cc1ncsc1-c1nc(C2CCN(CC(C)C)CC2)c(Cl)c(=O)[nH]1` [Compound 27, 5-chloro-4-(1-isobutyl-4-piperidyl)-2-(4-methylthiazol-5-yl)-1H-pyrimidin-6-one], the IC50 was 56.2 nM.

With `O=c1[nH]c(-c2cncs2)nc(C2CCOCC2)c1Cl` [Compound 9, 5-chloro-4-tetrahydropyran-4-yl-2-thiazol-5-yl-1H-pyrimidin-6-one], the IC50 is 562 nM. In the case of `Cc1ncsc1-c1nc(C2CCOCC2)c(I)c(=O)[nH]1` [Compound 7, 5-Iodo-2-(4-methylthiazol-5-yl)-4-tetrahydropyran-4-yl-1H-pyrimidin-6-one] it was 245 nM; in that of `Cc1ncsc1C(=O)N1CCC(c2nc(-c3scnc3C)[nH]c(=O)c2Cl)CC1` [Compound 20, 5-chloro-4-[1-(4-methylthiazole-5-carbonyl)-4-piperidyl]-2-(4-methylthiazol-5-yl)-1H-pyrimidin-6-one], 4.47 nM; in that of `Cc1ncsc1-c1nc(C2CCN(C(=O)OC(C)(C)C)CC2)c(Cl)c(=O)[nH]1` [Compound 1, tert-butyl 4-[5-chloro-2-(4-methylthiazol-5-yl)-6-oxo-1H-pyrimidin-4-yl]piperidine-1-carboxylate], 229 nM.

On to `Cc1ncsc1-c1nc(C2CCOCC2)c(C#N)c(=O)[nH]1` [Compound 18, 2-(4-methylthiazol-5-yl)-6-oxo-4-tetrahydropyran-4-yl-1H-pyrimidine-5-carbonitrile], for which the IC50 is 60.3 nM.

Regarding `Cc1ncsc1-c1nc(C2CCN(C(=O)C3CC3(F)F)CC2)c(Cl)c(=O)[nH]1` (stereo not shown) [Compound 19, 5-chloro-4-[1-(2,2-difluorocyclopropanecarbonyl)-4-piperidyl]-2-(4-methylthiazol-5-yl)-1H-pyrimidin-6-one], the IC50 is 40.7 nM. To `Cc1cc(C(=O)N2CCC(c3nc(-c4scnc4C)[nH]c(=O)c3Cl)CC2)[nH]n1` [Compound 22, 5-chloro-4-[1-(3-methyl-1H-pyrazole-5-carbonyl)-4-piperidyl]-2-(4-methylthiazol-5-yl)-1H-pyrimidin-6-one] belongs 4.37 nM. In the case of `Cn1nccc1-c1nc(C2CCOCC2)c(Cl)c(=O)[nH]1` [Compound 10, 5-chloro-2-(2-methylpyrazol-3-yl)-4-tetrahydropyran-4-yl-1H-pyrimidin-6-one], the IC50 was 93.3 nM. To `Cc1ncsc1-c1nc(C2CCN(C(=O)c3cscn3)CC2)c(Cl)c(=O)[nH]1` [Compound 21, 5-chloro-2-(4-methylthiazol-5-yl)-4-[1-(thiazole-4-carbonyl)-4-piperidyl]-1H-pyrimidin-6-one] belongs 3.98 nM; to `Cc1ncsc1-c1nc(N2CCCNC(=O)C2)c(Cl)c(=O)[nH]1` [Compound 34, 4-[5-chloro-2-(4-methylthiazol-5-yl)-6-oxo-1H-pyrimidin-4-yl]-1,4-diazepan-2-one], 158 nM; to `Cc1ncsc1-c1nc(C2CCOCC2)c(Br)c(=O)[nH]1` [Compound 3, 5-bromo-2-(4-methylthiazol-5-yl)-4-tetrahydropyran-4-yl-1H-pyrimidin-6-one], 57.5 nM. To `Cc1cc(C(=O)N2CCC(c3nc(-c4scnc4C)[nH]c(=O)c3Cl)CC2)n(C)n1` [Compound 24, 5-chloro-4-[1-(2,5-dimethylpyrazole-3-carbonyl)-4-piperidyl]-2-(4-methylthiazol-5-yl)-1H-pyrimidin-6-one] belongs 3.98 nM. Turning to `Cc1nnsc1-c1nc(C2CCOCC2)c(Cl)c(=O)[nH]1` [Compound 11, 5-chloro-2-(4-methylthiadiazol-5-yl)-4-tetrahydropyran-4-yl-1H-pyrimidin-6-one], the IC50 was 692 nM.

The values are drawn from US11766434B2, “Pyrimidinone derivatives as CDC7 inhibitors” (Cancer Research Technology Limited, priority 2016, dated 2023).
